According to ChEMBL document CHEMBL1201862, “PubChem BioAssay data set” (2004):
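Briefly, cells in 96-well plates were exposed to five compound concentrations for 48 h, and endpoints were estimated by linear interpolation. GI50 = concentration required for 50% inhibition of growth.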 Activity calls are given as the source filed them. No stated cut-off is given here; in the data, active = GI50 up to about 1.1 µM and inactive = higher.

Legend:
Assay in all cases: DTP human tumour cell line panel, 48 h
SF-295 = tested on: SF-295
UACC-257 = tested on: UACC-257
NCI/ADR-RES = tested on: NCI/ADR-RES
SK-MEL-2 = tested on: SK-MEL-2
HCC 2998 = tested on: HCC 2998
CCRF-CEM = tested on: CCRF-CEM
HOP-62 = tested on: HOP-62
UACC-62 = tested on: UACC-62
NCI-H226 = tested on: NCI-H226
MOLT-4 = tested on: MOLT-4
OVCAR-5 = tested on: OVCAR-5
NCI-H460 = tested on: NCI-H460
HCT-15 = tested on: HCT-15
T47D = tested on: T47D
Malme-3M = tested on: Malme-3M
UO-31 = tested on: UO-31
SF-268 = tested on: SF-268
HL-60 = tested on: HL-60
MDA-MB-435 = tested on: MDA-MB-435
DU-145 = tested on: DU-145

| SMILES | GI50 (SF-295) | GI50 (UACC-257) | GI50 (NCI/ADR-RES) | GI50 (SK-MEL-2) | GI50 (HCC 2998) | GI50 (CCRF-CEM) | GI50 (HOP-62) | GI50 (UACC-62) | GI50 (NCI-H226) | GI50 (MOLT-4) | GI50 (OVCAR-5) | GI50 (NCI-H460) | GI50 (HCT-15) [µM] | GI50 (T47D) | GI50 (Malme-3M) | GI50 (UO-31) | GI50 (SF-268) | GI50 (HL-60) | GI50 (MDA-MB-435) | GI50 (DU-145) |
| --- | --- | --- | --- | --- | --- | --- | --- | --- | --- | --- | --- | --- | --- | --- | --- | --- | --- | --- | --- | --- |
| CN(C)CCCn1c2c3ccccc3ccc2c2oc(=O)c3ccccc3c21 | 3.62 µM (inactive) | 8.65 µM (inactive) | 10.8 µM (inactive) | 9.23 µM (inactive) | 1.22 µM (inactive) | 3.31 µM (inactive) | 5.7 µM (inactive) | 8.63 µM (inactive) | > 35.2 µM (inactive) | 0.986 µM (active) | 32.6 µM (inactive) | 2.05 µM (inactive) | 1.57 | 12.1 µM (inactive) | 7.64 µM (inactive) | 3.44 µM (inactive) | 5.41 µM (inactive) | 2.28 µM (inactive) | – | – |
| Cn1c2c(c3ccccc31)CCN1C(=O)C34CCCC3CC21S4 (configuration not stated) | > 100 µM (inactive) | > 100 µM (inactive) | > 100 µM (inactive) | > 100 µM (inactive) | – | – | > 100 µM (inactive) | 78.7 µM (inactive) | > 100 µM (inactive) | > 100 µM (inactive) | > 100 µM (inactive) | – | > 100 | 87.1 µM (inactive) | > 100 µM (inactive) | > 100 µM (inactive) | > 100 µM (inactive) | > 100 µM (inactive) | > 100 µM (inactive) | > 100 µM (inactive) |
| CCSC1SC(c2ccccc2)(c2ccccc2)c2ccccc21 (configuration not stated) | 70 µM (inactive) | 26.4 µM (inactive) | 43.2 µM (inactive) | – | 45.1 µM (inactive) | 54 µM (inactive) | > 100 µM (inactive) | 53.6 µM (inactive) | 31.6 µM (inactive) | 25.4 µM (inactive) | 45.4 µM (inactive) | 36.9 µM (inactive) | 42.1 | – | 34.1 µM (inactive) | 47.5 µM (inactive) | 93.1 µM (inactive) | – | 33.7 µM (inactive) | 64.7 µM (inactive) |
| COc1nc2ccc(Cl)c(C(O)c3ccccc3)c2nc1OC (configuration not stated) | 10.5 µM (inactive) | 24.6 µM (inactive) | 20.3 µM (inactive) | 18.5 µM (inactive) | – | 12.6 µM (inactive) | 16.5 µM (inactive) | 17.1 µM (inactive) | 16.3 µM (inactive) | 17.6 µM (inactive) | 29 µM (inactive) | 25.8 µM (inactive) | 20.6 | 19.8 µM (inactive) | 32.9 µM (inactive) | 22.1 µM (inactive) | 23.4 µM (inactive) | 19.2 µM (inactive) | 12.5 µM (inactive) | 32.3 µM (inactive) |
| NC1=NN(c2ccccc2)C(=O)C1C(=O)C(=O)Nc1ccccc1 (configuration not stated) | > 100 µM (inactive) | > 100 µM (inactive) | – | > 100 µM (inactive) | > 100 µM (inactive) | > 100 µM (inactive) | > 100 µM (inactive) | > 100 µM (inactive) | > 100 µM (inactive) | > 100 µM (inactive) | > 100 µM (inactive) | > 100 µM (inactive) | > 100 | – | > 100 µM (inactive) | > 100 µM (inactive) | > 100 µM (inactive) | > 100 µM (inactive) | – | – |
| S=C1NC(c2ccccc2)NC(c2ccccc2)S1 (configuration not stated) | > 100 µM (inactive) | 34.6 µM (inactive) | > 100 µM (inactive) | > 100 µM (inactive) | – | 2.2 µM (inactive) | 74.8 µM (inactive) | 55 µM (inactive) | > 100 µM (inactive) | > 100 µM (inactive) | > 100 µM (inactive) | 21.4 µM (inactive) | 51.1 | > 100 µM (inactive) | > 100 µM (inactive) | > 100 µM (inactive) | > 100 µM (inactive) | > 100 µM (inactive) | > 100 µM (inactive) | > 100 µM (inactive) |
| COC(=O)C(=O)C(C(=O)C(=O)Nc1ccc(Cl)cc1Cl)c1nc2ccc(Cl)cc2nc1O (configuration not stated) | > 100 µM (inactive) | > 100 µM (inactive) | > 100 µM (inactive) | > 100 µM (inactive) | > 100 µM (inactive) | 69.7 µM (inactive) | > 100 µM (inactive) | > 100 µM (inactive) | 49 µM (inactive) | 82.8 µM (inactive) | > 100 µM (inactive) | > 100 µM (inactive) | > 100 | – | – | 28.4 µM (inactive) | > 100 µM (inactive) | > 100 µM (inactive) | > 100 µM (inactive) | > 100 µM (inactive) |
| Nc1ccc2c(c1)NCCN2 | 64.1 µM (inactive) | 82 µM (inactive) | > 100 µM (inactive) | > 100 µM (inactive) | > 100 µM (inactive) | – | > 100 µM (inactive) | 5.13 µM (inactive) | 7.8 µM (inactive) | 2.75 µM (inactive) | > 100 µM (inactive) | 4.39 µM (inactive) | 61.9 | – | 51.4 µM (inactive) | 17.4 µM (inactive) | 56.5 µM (inactive) | 9.71 µM (inactive) | 82 µM (inactive) | 25.7 µM (inactive) |
